Earlier results on 1 compound are cited in patent US6365621B1, “Remedies or preventives for intractable epilepsy” (Pharmaceutical Co., Ltd., priority 1998, dated 2002).

The test system of this data set is kainate-induced amygdala seizures. The conditions noted are these: high concentration; cited from earlier work.

Regarding `NS(=O)(=O)Cc1noc2ccccc12` [zonisamide], the “Suppression of status epilepticus of kainate-induced amygdala seizure in acute phase” value was “proven suppression effect”.
